{"source": "patent US6777415B2", "about": "“Methods of inducing cancer cell death and tumor regression” (priority 2000, dated 2004)", "key": {"[1]": {"test_system": "Ras-transformed cells", "conditions": "Ras-transformed cells (Alessi et al., 1995); cited from earlier work"}, "[2]": {"test_system": "MAPK pathway", "test": "Time course of MAPK pathway inhibition after treatment", "type": "cell-based", "text": "(2) A “Ras signaling pathyway inhibitor” is defined herein as an agent that blocks the activity of any protein in the signal transduction pathway shown in FIG. 1. A particularly preferred Ras signaling pathway inhibitor is a “MEK inhibitor”, which is defined herein as an agent that blocks the in vitro enzyme activity of a MEK (MAPK/ERK kinase) protein (preferably inhibiting MEK1 and MEK2), and thus blocks the activation of a MAPK protein as evidenced by a block in the phosphorylation of the MAPK protein. This can be detected by western blot analysis for phosphorylated MAPK as described in, e.g., Dudley et al., Proc Natl Acad Sci. 92:7686-7689 (1995), and Favata et al., J Bio Chem. 273:18623-32(1998).\n“Sustained effect” is defined herein as a prolonged/enhanced apoptotic response to combination treatment with a FPT I and a MEK1,2 inhibitor in comparison to single treatment alone. The consequences of a “sustained effect” can be monitored either by measurement of MAPK activity or cell death or apoptosis, as described in previously. The effective time course for inhibition of MAPK pathway by the individual drugs is dose dependent. […] (See, e.g., FIG. 6."}, "[3]": {"test_system": "human tumor cell lines", "conditions": "variety of human tumor cell lines, in vitro (Liu et al., 1998); cited from earlier work"}, "[4]": {"test_system": "human tumor cell lines as xenografts", "conditions": "immuno-compromised mice (Liu et al., 1998); cited from earlier work"}, "[5]": {"test_system": "MEK", "conditions": "Favata et al., 1998; cited from earlier work"}}, "data": [{"molecule": "COc1cccc(-c2cc(=O)c3ccccc3o2)c1N", "note": "[PD098059]", "values": [{"measurement": "effect on growth factor-mediated proliferation and anchorage-independent growth", "setting": "[1]", "result": "blocks"}]}, {"molecule": "NC(=O)N1CCC(CC(=O)N2CCC(C3c4ncc(Br)cc4CCc4cc(Cl)cc(Br)c43)CC2)CC1", "note": "(stereo not drawn) [SCH 66336]", "values": [{"measurement": "duration of the MAPK inhibitory effect after treatment", "setting": "[2]", "result": "≤ 72", "unit": "h"}, {"measurement": "time of optimal MAPK pathway inhibition after treatment", "setting": "[2]; dose dependent", "result": "12 to 18", "unit": "h"}, {"measurement": "inhibition of anchorage-independent growth", "setting": "[3]", "result": "inhibition of anchorage-independent growth"}, {"measurement": "inhibition of growth as xenografts", "setting": "[4]", "result": "inhibition"}]}, {"molecule": "N#CC(=C(/N)Sc1ccccc1N)/C(C#N)=C(\\N)Sc1ccccc1N", "note": "[U0126]", "values": [{"measurement": "affinity of binding to MEK relative to PD098059", "setting": "[5]", "result": "higher affinity than PD098059"}]}]}
